Patent US9783490B2, “Antimicrobial compounds, their synthesis and applications thereof” (The Secretary of State for Health, priority 2012, dated 2017)
Read-outs that look alike come from different tables or passages of the source.

Tests used:
human RBCs = assay: Haemolytic activity (HC50); assay type: cell-based
Protocol: Erythrocytes are isolated from freshly drawn, heparinized human blood and re-suspended to 5 vol % in PBS (pH 7.4). In a 96-well microtiter plate, 150 μl of erythrocyte suspension is added to 50 μl of serially diluted compound. Two controls are made, one without compound and other with 50 μl of 1 vol % solution of Triton X-100. The plate is incubated for about 1 hr at a temperature of about 37° C. The plate is then centrifuged at 3,500 rpm for about 5 min, 100 μl of the supernatant from each well is transferred to a fresh microtiter plate, and absorbance at 540 nm is measured. Percentage of hemolysis is determined as (A−A0)/(Atotal−A0)×100, where A is the absorbance of the test well, A0 the absorbance of the negative controls (without compound), and A total the absorbance of 100% hemolysis wells (with Triton X-100), when absorbance is read at 540 nm.
Toxicity studies of the compounds are carried out on freshly drawn human RBCs. Toxicity of the antimicrobial compounds of the present disclosure is defined by their HC50 values illustrated in Table 3, i.e. the concentration of compound at which 50% of the blood cells are lysed. Haemolytic studies conducted herein illustrates that the antimicrobial compounds provided by the instant disclosure are selective towards drug sensitive bacteria and drug resistant bacteria over human RBCs, thus establishing the non-toxicity of the present compounds.

S. aureus (MTCC 737) = assay: Minimum Inhibitory Concentration, micro-dilution broth; assay type: cell-based, Staphylococcus aureus; details: for Minimum Inhibitory Concentration S. aureus: Drug sensitive bacteria
Protocol: (§1) Microorganisms and Culture Conditions: Bacterial strains, S. aureus (MTCC 737) and E. coli (MTCC 443) are purchased from MTCC (Chandigarh, India). MRSA (ATCC 33591), Pseudomonas aeruginosa (ATCC 4676), […]-lactamase producing and drug-resistant Klebsiella pneumonia (ATCC700603), Enterococcus faecium (ATCC 19634) and vancomycin resistant Enterococcus faecium (ATCC 51559) are obtained from ATCC (Rockville, Md., USA).
(§2) E. coli is cultured in Luria Bertani broth (10 g of tryptone, 5 g of yeast extract, and 10 g of NaCl in 1000 mL of sterile distilled water (pH −7) while S. aureus, Pseudomonas aeruginosa (ATCC 4676) and MRSA are grown in Yeast-dextrose broth (1 g of beef extract, 2 g of yeast extract, 5 g of peptone and 5 g of NaCl in 1000 mL of sterile distilled water). For all Enterococcus faecium, Brain Heart Infusion broth (BHI) is used. For solid media 5% agar was used along with above mentioned composition. K. pneumonia was grown in nutrient media (3 g of beef extract and 5 g of peptone in 1000 mL of sterile distilled water). The bacterial samples were freeze dried and stored at −80° C. 5 μl of these stocks were added to 3 mL of the nutrient broth and the culture was grown for 6 h at 37° C. prior to the experiments.
(§3) Antibacterial activity is reported as Minimum Inhibitory Concentration (MIC), i.e. the lowest concentration of the antimicrobial agent that will inhibit the growth of a microorganism after overnight incubation. Water-soluble ACK, NCK and BCK series of compounds are assayed in a modified micro-dilution broth format. Stock solutions are made by serially diluting the compounds using autoclaved Millipore water. Bacteria, to be tested are grown for about 6 hrs in the suitable media containing ˜10^9 cfu/mL (determined through dilution plate technique by spread plate method), which is then diluted to 10^5 cfu/mL using nutrient media. 50 μL of serially diluted compound is added to a 96 well plate containing 150 μL bacterial solutions. Two controls are made; one containing 150 μL of media and 50 μL of compound and the other containing 200 μL of bacterial solution. […] MIC value is determined by taking the average of triplicate O.D. values for each concentration and plotting it against concentration using Origin Pro 8.0 software. The data is then subjected to sigmoidal fitting. From the curve, MIC value is determined, as the point in the curve where the O.D. is similar to that of control having no bacteria. The MIC values and errors of independent experiments are reported as average and standard deviation of triplicates.

[1] = test system: Pseudomonas aeruginosa (ATCC 4676); assay: as above; assay type: cell-based; details: for Minimum Inhibitory Concentration P. aeruginosa: Drug sensitive bacteria
Protocol: as §1, §2, §3

[2] = test system: Enterococcus faecium (ATCC 19634); assay: as above; assay type: cell-based; details: for Minimum Inhibitory Concentration E. faecium: Drug sensitive bacteria
Protocol: as §1, §2, §3

[3] = test system: vancomycin resistant Enterococcus faecium (ATCC 51559); assay: as above; assay type: cell-based; details: for Minimum Inhibitory Concentration VRE: Drug resistant bacteria
Protocol: as §1, §2, §3

[4] = test system: drug-resistant Klebsiella pneumonia (ATCC700603); assay: as above; assay type: cell-based; details: for Minimum Inhibitory Concentration K. pneumonia: Drug resistant bacteria
Protocol: as §1, §2, §3

MRSA (ATCC 33591) = assay: as above; assay type: cell-based, Methicillin resistant S. aureus; details: for Minimum Inhibitory Concentration MRSA: Drug resistant bacteria
Protocol: as §1, §2, §3

E. coli (MTCC 443) = assay: as above; assay type: cell-based, Escherichia coli; details: for Minimum Inhibitory Concentration E. coli: Drug sensitive bacteria
Protocol: as §1, §2, §3

bacteria = assay: Minimum inhibitory concentration, bacterium not given; assay type: cell-based
Protocol: as §3

[5] = concentration at which 50% of the blood cells are lysed, human RBCs

## CCCCCCCCN(Cc1cccc2ccccc12)C(=O)C(N)CCCCN.O=C(O)C(F)(F)F (stereo not drawn) [NCK-8, Lys-N-octyl-1-Aminomethylnaphthalene trifluoroacetate]
Human RBCs; [5]
  HC50: 60 µg/mL
S. aureus (MTCC 737)
  MIC value against S. aureus: about 6.3 μg/ml
  Minimum Inhibitory Concentration S. aureus: 6.3 µg/mL
[1]
  MIC value against P. aeruginosa: ~5.4 µg/mL
  Minimum Inhibitory Concentration P. aeruginosa: 5.4 µg/mL
[2]
  MIC value against E. faecium: about 5.5 μg/ml
  Minimum Inhibitory Concentration E. faecium: 5.5 µg/mL
[3]
  MIC value against vancomycin-resistant E. faecium: about 7 μg/ml
  Minimum Inhibitory Concentration VRE: 7 µg/mL
[4]
  MIC value against K. pneumonia: about 13 μg/ml
  Minimum Inhibitory Concentration K. pneumonia: 13 µg/mL
MRSA (ATCC 33591)
  MIC value against methicillin-resistant S. aureus: about 4.4 μg/ml
  Minimum Inhibitory Concentration MRSA: 4.4 µg/mL
E. coli (MTCC 443)
  MIC value against E. coli: about 5 μg/ml
  Minimum Inhibitory Concentration E. coli: 5 µg/mL

## CCCCCCCCCCN(Cc1cccc2ccccc12)C(=O)[C@@H](N)CCCCN.O=C(O)C(F)(F)F [NCK-10, Lys-N-decyl-1-Aminomethylnaphthalene trifluoroacetate]
Human RBCs; [5]
  HC50: 54 µg/mL
S. aureus (MTCC 737)
  MIC value against S. aureus: ~2.5 µg/mL
  Minimum Inhibitory Concentration S. aureus: 2.5 µg/mL
[1]
  MIC value against P. aeruginosa: ~3 µg/mL
  Minimum Inhibitory Concentration P. aeruginosa: 3 µg/mL
[2]
  MIC value against E. faecium: ~3.5 µg/mL
  Minimum Inhibitory Concentration E. faecium: 3.5 µg/mL
[3]
  MIC value against vancomycin-resistant E. faecium: ~1.6 µg/mL
  Minimum Inhibitory Concentration VRE: 1.6 µg/mL
[4]
  MIC value against K. pneumonia: ~5.8 µg/mL
  Minimum Inhibitory Concentration K. pneumonia: 5.8 µg/mL
MRSA (ATCC 33591)
  MIC value against methicillin-resistant S. aureus: ~2.6 µg/mL
  Minimum Inhibitory Concentration MRSA: 2.6 µg/mL
E. coli (MTCC 443)
  MIC value against E. coli: ~4 µg/mL
  Minimum Inhibitory Concentration E. coli: 4 µg/mL

## CCCCCCCCCCCCN(Cc1cccc2ccccc12)C(=O)[C@@H](N)CCCCN.O=C(O)C(F)(F)F [NCK-12, Lys-N-dodecyl-1-Aminomethylnaphthalene trifluoroacetate]
Human RBCs; [5]
  HC50: 56 µg/mL
S. aureus (MTCC 737)
  MIC value against S. aureus: ~3 µg/mL
  Minimum Inhibitory Concentration S. aureus: 3 µg/mL
[1]
  MIC value against P. aeruginosa: ~3.2 µg/mL
  Minimum Inhibitory Concentration P. aeruginosa: 3.2 µg/mL
[2]
  MIC value against E. faecium: ~1.6 µg/mL
  Minimum Inhibitory Concentration E. faecium: 1.6 µg/mL
[3]
  MIC value against vancomycin-resistant E. faecium: ~3.4 µg/mL
  Minimum Inhibitory Concentration VRE: 3.4 µg/mL
[4]
  MIC value against K. pneumonia: ~4 µg/mL
  Minimum Inhibitory Concentration K. pneumonia: 4 µg/mL
MRSA (ATCC 33591)
  MIC value against methicillin-resistant S. aureus: ~2.7 µg/mL
  Minimum Inhibitory Concentration MRSA: 2.7 µg/mL
E. coli (MTCC 443)
  MIC value against E. coli: ~3.1 µg/mL
  Minimum Inhibitory Concentration E. coli: 3.1 µg/mL

## Lys-N-octylaminodecane [Dec-CK-8]
bacteria
  active concentration against all bacteria: below 5.6 μg/ml
Human RBCs
  HC50: 82 µg/mL
  HC50 values: 82 µg/mL
S. aureus (MTCC 737)
  Minimum Inhibitory Concentration S. aureus: 3.1 µg/mL
[1]
  Minimum Inhibitory Concentration P. aeruginosa: 4.2 µg/mL
[2]
  MIC value against E. faecium: 3 µg/mL
  Minimum Inhibitory Concentration E. faecium: 3 µg/mL
[3]
  Minimum Inhibitory Concentration VRE: 3.3 µg/mL
[4]
  Minimum Inhibitory Concentration K. pneumonia: 5.6 µg/mL
MRSA (ATCC 33591)
  MIC value against methicillin-resistant S. aureus: 3 µg/mL
  Minimum Inhibitory Concentration MRSA: 3 µg/mL
E. coli (MTCC 443)
  Minimum Inhibitory Concentration E. coli: 3.1 µg/mL
